The CheMixHub ionic liquid set
Values joined by “and” are separate entries in the source; they are usually repeats but may differ in a detail not shown here. Equal entries are not always repeated. ± gives the uncertainty stated by the source.

Assay: xn = mol fraction of the nth substance listed

CCCC[n+]1ccn(C)c1.F[B-](F)(F)F + CS(C)=O
100 kPa
Settings | electrical conductivity, 298.15 K [S/m] | viscosity, 298.15 K | viscosity, 303.15 K [mPa·s] | viscosity, 308.15 K [mPa·s] | viscosity, 313.15 K [mPa·s]
x1 = 0.0192 | – | 3.4 ± 0.1 mPa·s | 2.9 ± 0.08 | 2.46 ± 0.06 | 2.17 ± 0.05
x1 = 0.0447 | – | 5.06 ± 0.12 mPa·s | 4.12 ± 0.1 | 3.28 ± 0.08 | 2.8 ± 0.06
x1 = 0.0661 | – | 6.29 ± 0.15 mPa·s | 5.13 ± 0.12 | 3.85 ± 0.09 | 3.2 ± 0.07
x1 = 0.0722 | 0.974 ± 0.01 | 3.144 ± 0.039 mPa·s | – | – | –
x1 = 0.0974 | – | 8.27 ± 0.19 mPa·s | 6.5 ± 0.15 | 4.89 ± 0.11 | 4.03 ± 0.09
x1 = 0.1622 | – | 12.79 ± 0.28 mPa·s | 9.68 ± 0.21 | 6.72 ± 0.15 | 5.22 ± 0.11
x1 = 0.1764 | – | 5.489 ± 0.068 mPa·s | – | – | –
x1 = 0.2138 | – | 16.68 ± 0.36 mPa·s | 12.57 ± 0.27 | 8.83 ± 0.19 | 6.86 ± 0.15
x1 = 0.2145 | 1.016 ± 0.01 | 6.836 ± 0.086 mPa·s | – | – | –
x1 = 0.2889 | – | 22.73 ± 0.49 mPa·s | 17.15 ± 0.37 | 11.9 ± 0.26 | 9.21 ± 0.2
x1 = 0.3225 | 0.831 ± 0.008 | 11.38 ± 0.14 mPa·s | – | – | –
x1 = 0.3735 | – | 30.07 ± 0.64 mPa·s | 22.87 ± 0.49 | 15.97 ± 0.34 | 12.58 ± 0.27
x1 = 0.4189 | 0.672 ± 0.007 | 17.2 ± 0.22 mPa·s | – | – | –
x1 = 0.4431 | – | 36.58 ± 0.78 mPa·s | 27.97 ± 0.6 | 19.78 ± 0.42 | 15.65 ± 0.33
x1 = 0.5247 | – | 44.65 ± 0.95 mPa·s | 34.44 ± 0.74 | 24.63 ± 0.53 | 19.75 ± 0.42
x1 = 0.607 | 0.436 ± 0.004 | 34 ± 0.43 mPa·s | – | – | –
x1 = 0.6172 | – | 54.3 ± 1.1 mPa·s | 42.3 ± 0.9 | 30.73 ± 0.66 | 24.85 ± 0.53
x1 = 0.6557 | 0.352 ± 0.004 | 38.87 ± 0.49 mPa·s | – | – | –
x1 = 0.6772 | – | 61 ± 1.3 mPa·s | 47.6 ± 1 | 34.97 ± 0.74 | 28.49 ± 0.6
x1 = 0.7513 | – | 69.5 ± 1.5 mPa·s | 54.7 ± 1.1 | 40.59 ± 0.86 | 33.35 ± 0.71
x1 = 0.7958 | – | 75 ± 1.6 mPa·s | 59.2 ± 1.3 | 44.05 ± 0.94 | 36.37 ± 0.77
x1 = 0.8283 | 0.284 ± 0.003 | – | – | – | –
x1 = 0.8516 | – | 81.9 ± 1.8 mPa·s | – | 48.7 ± 1 | 40.3 ± 0.85
x1 = 0.8954 | – | 87.5 ± 2 mPa·s | 69.6 ± 1.5 | 52.5 ± 1.1 | 43.72 ± 0.92
x1 = 0.9155 | – | 82.7 ± 1.6 mPa·s | – | – | –
x1 = 0.9373 | – | 92.9 ± 2.1 mPa·s | 74.1 ± 1.6 | 56.2 ± 1.2 | 46.9 ± 0.99
x1 = 0.9687 | – | 97.1 ± 2.2 mPa·s | 77.5 ± 1.7 | 59 ± 1.2 | 49.4 ± 1
x1 = 1 | 0.243 ± 0.002 | 101 ± 2 mPa·s and 104.7 ± 2.6 mPa·s | 80.7 ± 1.8 | 61.5 ± 1.3 | 51.5 ± 1.1

O + C[C@@H](O)[C@H](N)C(=O)O + CCCCCCCCCCCCCCCC[n+]1ccccc1.[Cl-]
Settings | electrical conductivity [S/m]
308.15 K, 101 kPa, x2 = 0, x3 = 0 | 6.7e-05 ± 1e-06

O + C[C@H](N)C(=O)O + CCCCCCCCCCCCCCCC[n+]1ccccc1.[Cl-]
Settings | electrical conductivity [S/m]
308.15 K, 101 kPa, x2 = 0, x3 = 0 | 6.7e-05 ± 1e-06

CCCC[n+]1ccn(C)c1.F[B-](F)(F)F + Cc1ccccc1
viscosity [mPa·s], 101 kPa
Settings | x2 = 0.05 | x2 = 0.1 | x2 = 0.2 | x2 = 0.3 | x2 = 0.33
298.15 K | 80.4 ± 3.9 | 74.5 ± 3.6 | 59.9 ± 3 | 47.9 ± 2.5 | 44.8 ± 2.3
300.65 K | 54.8 ± 2.7 | 50.7 ± 2.5 | 39.3 ± 2 | 29.3 ± 1.6 | 27.8 ± 1.5
303.15 K | 41.3 ± 1.9 | 38.1 ± 1.7 | 29.2 ± 1.3 | 21.6 ± 1 | 20.46 ± 0.94
305.65 K | 33.3 ± 1.4 | 30.6 ± 1.3 | 23.5 ± 1 | 17.49 ± 0.76 | 16.56 ± 0.72
308.15 K | 28 ± 1.2 | 25.7 ± 1.1 | 19.89 ± 0.84 | 15 ± 0.63 | 14.18 ± 0.6
310.65 K | 24.4 ± 1 | 22.36 ± 0.94 | 17.41 ± 0.73 | 13.35 ± 0.55 | 12.59 ± 0.52
313.15 K | 21.75 ± 0.9 | 19.9 ± 0.82 | 15.63 ± 0.65 | 12.18 ± 0.5 | 11.46 ± 0.47
315.65 K | 19.74 ± 0.81 | 18.04 ± 0.74 | 14.3 ± 0.59 | 11.31 ± 0.46 | 10.62 ± 0.44
318.15 K | 18.18 ± 0.75 | 16.59 ± 0.68 | 13.26 ± 0.54 | 10.64 ± 0.43 | 9.97 ± 0.41
320.65 K | 16.93 ± 0.69 | 15.43 ± 0.63 | 12.44 ± 0.51 | 10.11 ± 0.41 | 9.46 ± 0.39
323.15 K | 15.91 ± 0.65 | 14.49 ± 0.59 | 11.76 ± 0.48 | 9.68 ± 0.39 | 9.05 ± 0.37
325.65 K | 15.07 ± 0.61 | 13.71 ± 0.56 | 11.21 ± 0.46 | 9.32 ± 0.38 | 8.7 ± 0.35
328.15 K | 14.36 ± 0.59 | 13.05 ± 0.53 | 10.74 ± 0.44 | 9.02 ± 0.37 | 8.41 ± 0.34
330.65 K | 13.75 ± 0.56 | 12.48 ± 0.51 | 10.35 ± 0.42 | 8.77 ± 0.36 | 8.17 ± 0.33
333.15 K | 13.23 ± 0.54 | 12 ± 0.49 | 10 ± 0.41 | 8.55 ± 0.35 | 7.96 ± 0.32
335.65 K | 12.77 ± 0.52 | 11.58 ± 0.47 | 9.7 ± 0.39 | 8.36 ± 0.34 | 7.77 ± 0.32
338.15 K | 12.37 ± 0.5 | 11.21 ± 0.46 | 9.44 ± 0.38 | 8.19 ± 0.33 | 7.61 ± 0.31

CCCC[n+]1ccn(C)c1.F[B-](F)(F)F + ClC(Cl)Cl
298.15 K, 101 kPa, x2 = 0
Settings | electrical conductivity [S/m] | viscosity [mPa·s]
– | 0.194 ± 0.023 | 116 ± 40

CCCC[n+]1ccn(C)c1.F[B-](F)(F)F + ClCCl
298.15 K, 101 kPa, x2 = 0
Settings | electrical conductivity [S/m] | viscosity [mPa·s]
– | 0.194 ± 0.023 | 116 ± 40

CCCC[n+]1ccn(C)c1.F[B-](F)(F)F + NC(N)=O + O
Settings | viscosity [mPa·s]
298.15 K, 100 kPa, x2 = 0, x3 = 0.9487 | 1.99 ± 0.1

CCCC[n+]1ccn(C)c1.F[B-](F)(F)F + NC=O
101 kPa, x1 = 1
Settings | viscosity [mPa·s]
308.15 K | 58.4 ± 1.9
318.15 K | 38.7 ± 1.3

O + NCC(=O)O + CCCCCCCCCCCCCCCC[n+]1ccccc1.[Cl-]
Settings | electrical conductivity [S/m]
308.15 K, 101 kPa, x2 = 0, x3 = 0 | 6.7e-05 ± 1e-06

CC(=O)[O-].CCCC[n+]1ccn(C)c1 + NCCCNCCCN + O
viscosity [mPa·s], 101 kPa
Settings | 298.15 K | 303.15 K | 308.15 K | 313.15 K | 318.15 K | 323.15 K | 328.15 K | 333.15 K
x1 = 0.03479, x2 = 0 | 2.23 ± 0.14 | 2.18 ± 0.14 | 2.16 ± 0.14 | 2.13 ± 0.14 | 1.74 ± 0.14 | 1.58 ± 0.14 | 1.51 ± 0.14 | 1.24 ± 0.14
x1 = 0.03897, x2 = 0 | 2.35 ± 0.14 | 2.29 ± 0.14 | 2.25 ± 0.14 | 2.22 ± 0.14 | 2.11 ± 0.14 | 2.07 ± 0.14 | 1.91 ± 0.14 | 1.86 ± 0.14
x1 = 0.04311, x2 = 0 | 2.66 ± 0.14 | 2.63 ± 0.14 | 2.56 ± 0.14 | 2.49 ± 0.14 | 2.29 ± 0.14 | 2.26 ± 0.14 | 2.02 ± 0.14 | 1.97 ± 0.14

CC(=O)[O-].CCCC[n+]1ccn(C)c1 + NCCN1CCNCC1 + O
viscosity [mPa·s], 101 kPa
Settings | 298.15 K | 303.15 K | 308.15 K | 313.15 K | 318.15 K | 323.15 K | 328.15 K | 333.15 K
x1 = 0.03479, x2 = 0 | 2.23 ± 0.14 | 2.18 ± 0.14 | 2.16 ± 0.14 | 2.13 ± 0.14 | 1.74 ± 0.14 | 1.58 ± 0.14 | 1.51 ± 0.14 | 1.24 ± 0.14
x1 = 0.03897, x2 = 0 | 2.35 ± 0.14 | 2.29 ± 0.14 | 2.25 ± 0.14 | 2.22 ± 0.14 | 2.11 ± 0.14 | 2.07 ± 0.14 | 1.91 ± 0.14 | 1.86 ± 0.14
x1 = 0.04311, x2 = 0 | 2.66 ± 0.14 | 2.63 ± 0.14 | 2.56 ± 0.14 | 2.49 ± 0.14 | 2.29 ± 0.14 | 2.26 ± 0.14 | 2.02 ± 0.14 | 1.97 ± 0.14

CCCC[n+]1ccn(C)c1.F[B-](F)(F)F + NCCNCCN
101.3 kPa, x1 = 1
Settings | viscosity [mPa·s]
298.15 K | 101.1 ± 4.2
303.15 K | 81.9 ± 3.4
308.15 K | 63.6 ± 2.6

CCCC[n+]1ccn(C)c1.F[B-](F)(F)F + NCCO + O
viscosity [mPa·s], 101 kPa
Settings | 293.15 K | 298.15 K | 303.15 K | 308.15 K | 313.15 K | 318.15 K | 323.15 K | 328.15 K | 333.15 K
x1 = 0.0337, x2 = 0.2024 | 7 ± 2.1 | 5.5 ± 1.6 | 4.5 ± 1.4 | 3.8 ± 1.1 | – | – | – | – | –
x1 = 0.0792, x2 = 0.1188 | 6.1 ± 1.8 | 4.7 ± 1.4 | 4 ± 1.2 | 3.4 ± 1 | – | – | – | – | –
x1 = 0.0977, x2 = 0.2442 | – | – | 7.3 ± 2.2 | 6 ± 1.8 | 5.1 ± 1.5 | 4.3 ± 1.3 | 3.7 ± 1.1 | – | –
x1 = 0.1701, x2 = 0.3402 | – | – | – | 9 ± 2.7 | 7.6 ± 2.3 | 6.5 ± 1.9 | 5.5 ± 1.6 | 4.7 ± 1.4 | 4.1 ± 1.3

CCCC[n+]1ccn(C)c1.F[B-](F)(F)F + N[C@@H](Cc1c[nH]cn1)C(=O)O + O
viscosity [mPa·s], 100 kPa
Settings | 293.15 K | 298.15 K | 303.15 K | 308.15 K | 313.15 K | 318.15 K
x2 = 0, x1 = 0.0003603 | 1.03 ± 0.061 | 0.917 ± 0.061 | 0.835 ± 0.061 | 0.751 ± 0.061 | 0.693 ± 0.061 | 0.638 ± 0.061
x2 = 0, x1 = 0.0007203 | 1.062 ± 0.061 | 0.951 ± 0.061 | 0.868 ± 0.061 | 0.789 ± 0.061 | 0.736 ± 0.061 | 0.681 ± 0.061
x2 = 0, x1 = 0.00108 | 1.093 ± 0.061 | 0.983 ± 0.061 | 0.904 ± 0.061 | 0.83 ± 0.061 | 0.779 ± 0.061 | 0.725 ± 0.061

COCC[n+]1ccn(C)c1.O=S(=O)([N-]S(=O)(=O)C(F)(F)F)C(F)(F)F + O
101 kPa, x1 = 0.838
Settings | electrical conductivity [S/m] | viscosity [mPa·s]
283 K | – | 66.6 ± 1.6
298.15 K | 0.58 | –
